Drawing on the Kinase Knowledgebase extract (Sharma et al. 2016), this text covers IC50 and IC80 for 17 compounds.

For one test, the target named is PIK3CG (UniProt P48736). As to the kind of experiment: PIK3-gamma Kinase Inhibition.
Another test has as its target PIK3CD (UniProt O00329). As to the kind of experiment: PIK3-delta Kinase Inhibition.
The target in another test is PIK3CA (UniProt P42336). In words: PIK3-alpha Kinase Inhibition.
Another test addresses PIK3CB (UniProt P42338). In words: PIK3-beta Kinase Inhibition.

Sequence of PIK3CD (O00329 whole entry, looked up): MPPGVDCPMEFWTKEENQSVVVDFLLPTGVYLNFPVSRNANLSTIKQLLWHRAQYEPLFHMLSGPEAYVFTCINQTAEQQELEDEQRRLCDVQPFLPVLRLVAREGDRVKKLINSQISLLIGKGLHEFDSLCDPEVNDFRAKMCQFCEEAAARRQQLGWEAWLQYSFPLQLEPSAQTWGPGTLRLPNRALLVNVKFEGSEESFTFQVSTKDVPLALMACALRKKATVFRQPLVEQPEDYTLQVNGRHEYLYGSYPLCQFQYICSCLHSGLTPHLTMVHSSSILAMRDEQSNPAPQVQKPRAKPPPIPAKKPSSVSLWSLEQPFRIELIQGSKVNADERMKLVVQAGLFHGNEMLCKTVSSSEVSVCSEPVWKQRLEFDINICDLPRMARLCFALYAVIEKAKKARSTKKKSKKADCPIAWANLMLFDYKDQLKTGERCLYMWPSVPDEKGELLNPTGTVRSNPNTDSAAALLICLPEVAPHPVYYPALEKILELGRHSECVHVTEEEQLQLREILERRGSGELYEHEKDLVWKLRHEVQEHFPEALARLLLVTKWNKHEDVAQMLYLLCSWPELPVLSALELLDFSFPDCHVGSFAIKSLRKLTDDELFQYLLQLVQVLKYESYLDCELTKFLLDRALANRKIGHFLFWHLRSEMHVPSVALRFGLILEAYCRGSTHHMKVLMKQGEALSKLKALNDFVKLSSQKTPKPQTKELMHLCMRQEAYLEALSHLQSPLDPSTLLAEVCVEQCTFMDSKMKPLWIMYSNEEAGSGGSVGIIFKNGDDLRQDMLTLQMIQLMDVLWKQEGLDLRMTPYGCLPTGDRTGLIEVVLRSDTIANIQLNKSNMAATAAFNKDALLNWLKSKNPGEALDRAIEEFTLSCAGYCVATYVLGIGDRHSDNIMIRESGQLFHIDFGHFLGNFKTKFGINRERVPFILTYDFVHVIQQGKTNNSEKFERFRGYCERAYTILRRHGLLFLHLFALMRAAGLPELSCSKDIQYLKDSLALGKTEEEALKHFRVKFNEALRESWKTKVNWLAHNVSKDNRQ
Sequence of PIK3CB (P42338 whole entry, looked up): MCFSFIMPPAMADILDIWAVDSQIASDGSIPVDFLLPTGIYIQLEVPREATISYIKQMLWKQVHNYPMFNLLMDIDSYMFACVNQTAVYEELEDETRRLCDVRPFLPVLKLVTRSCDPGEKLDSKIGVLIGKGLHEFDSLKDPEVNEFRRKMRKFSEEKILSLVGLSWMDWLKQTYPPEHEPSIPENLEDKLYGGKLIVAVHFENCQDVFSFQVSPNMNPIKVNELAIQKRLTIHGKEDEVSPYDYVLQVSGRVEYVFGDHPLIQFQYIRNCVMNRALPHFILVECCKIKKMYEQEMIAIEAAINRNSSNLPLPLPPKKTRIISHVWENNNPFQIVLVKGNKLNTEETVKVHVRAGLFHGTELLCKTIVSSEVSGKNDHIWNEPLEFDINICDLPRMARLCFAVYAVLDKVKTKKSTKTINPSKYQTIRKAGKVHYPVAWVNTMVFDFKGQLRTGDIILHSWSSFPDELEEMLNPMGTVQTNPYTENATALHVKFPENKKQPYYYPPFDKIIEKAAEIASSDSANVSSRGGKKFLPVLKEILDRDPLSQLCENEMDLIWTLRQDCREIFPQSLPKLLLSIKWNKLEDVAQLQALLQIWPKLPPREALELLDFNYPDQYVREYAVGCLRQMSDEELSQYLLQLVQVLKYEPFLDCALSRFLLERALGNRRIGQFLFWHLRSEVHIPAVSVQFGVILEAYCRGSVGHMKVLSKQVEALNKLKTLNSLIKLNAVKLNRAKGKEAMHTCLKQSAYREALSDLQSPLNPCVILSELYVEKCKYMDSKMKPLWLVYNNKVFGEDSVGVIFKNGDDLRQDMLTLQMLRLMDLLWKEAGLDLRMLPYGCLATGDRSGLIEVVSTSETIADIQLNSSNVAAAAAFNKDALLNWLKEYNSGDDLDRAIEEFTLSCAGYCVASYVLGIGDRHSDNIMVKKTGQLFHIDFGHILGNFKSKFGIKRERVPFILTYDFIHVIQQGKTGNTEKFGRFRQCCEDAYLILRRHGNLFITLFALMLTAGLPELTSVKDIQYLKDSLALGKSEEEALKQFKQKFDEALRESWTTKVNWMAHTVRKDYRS
Sequence of PIK3CA (P42336 whole entry, looked up): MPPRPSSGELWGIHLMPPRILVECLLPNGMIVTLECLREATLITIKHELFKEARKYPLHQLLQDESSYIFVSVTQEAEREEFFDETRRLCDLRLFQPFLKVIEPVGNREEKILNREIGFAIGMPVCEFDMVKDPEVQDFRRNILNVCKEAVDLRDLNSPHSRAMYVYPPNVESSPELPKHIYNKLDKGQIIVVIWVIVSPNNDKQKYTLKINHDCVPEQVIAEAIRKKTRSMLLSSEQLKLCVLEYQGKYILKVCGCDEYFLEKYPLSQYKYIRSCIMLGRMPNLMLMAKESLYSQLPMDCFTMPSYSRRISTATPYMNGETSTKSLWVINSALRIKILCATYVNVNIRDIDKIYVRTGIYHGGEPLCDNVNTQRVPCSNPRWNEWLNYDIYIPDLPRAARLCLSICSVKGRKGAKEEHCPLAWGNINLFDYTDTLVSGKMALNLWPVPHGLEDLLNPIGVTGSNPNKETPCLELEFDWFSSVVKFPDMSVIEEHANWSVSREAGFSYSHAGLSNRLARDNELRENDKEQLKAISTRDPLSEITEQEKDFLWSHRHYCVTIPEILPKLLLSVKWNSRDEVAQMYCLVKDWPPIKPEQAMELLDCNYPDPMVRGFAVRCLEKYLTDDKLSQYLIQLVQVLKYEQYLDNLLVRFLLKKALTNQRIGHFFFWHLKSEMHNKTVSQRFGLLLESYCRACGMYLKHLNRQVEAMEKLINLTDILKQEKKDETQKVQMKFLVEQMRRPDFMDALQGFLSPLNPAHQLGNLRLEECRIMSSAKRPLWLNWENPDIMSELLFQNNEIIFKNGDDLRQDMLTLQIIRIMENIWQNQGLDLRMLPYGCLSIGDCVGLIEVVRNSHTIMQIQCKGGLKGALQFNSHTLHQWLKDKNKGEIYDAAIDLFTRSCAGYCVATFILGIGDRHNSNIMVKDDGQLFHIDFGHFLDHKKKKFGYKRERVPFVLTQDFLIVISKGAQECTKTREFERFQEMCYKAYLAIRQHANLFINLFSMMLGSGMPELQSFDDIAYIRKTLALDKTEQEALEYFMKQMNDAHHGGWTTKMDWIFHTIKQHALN
Sequence of PIK3CG (P48736 whole entry, looked up): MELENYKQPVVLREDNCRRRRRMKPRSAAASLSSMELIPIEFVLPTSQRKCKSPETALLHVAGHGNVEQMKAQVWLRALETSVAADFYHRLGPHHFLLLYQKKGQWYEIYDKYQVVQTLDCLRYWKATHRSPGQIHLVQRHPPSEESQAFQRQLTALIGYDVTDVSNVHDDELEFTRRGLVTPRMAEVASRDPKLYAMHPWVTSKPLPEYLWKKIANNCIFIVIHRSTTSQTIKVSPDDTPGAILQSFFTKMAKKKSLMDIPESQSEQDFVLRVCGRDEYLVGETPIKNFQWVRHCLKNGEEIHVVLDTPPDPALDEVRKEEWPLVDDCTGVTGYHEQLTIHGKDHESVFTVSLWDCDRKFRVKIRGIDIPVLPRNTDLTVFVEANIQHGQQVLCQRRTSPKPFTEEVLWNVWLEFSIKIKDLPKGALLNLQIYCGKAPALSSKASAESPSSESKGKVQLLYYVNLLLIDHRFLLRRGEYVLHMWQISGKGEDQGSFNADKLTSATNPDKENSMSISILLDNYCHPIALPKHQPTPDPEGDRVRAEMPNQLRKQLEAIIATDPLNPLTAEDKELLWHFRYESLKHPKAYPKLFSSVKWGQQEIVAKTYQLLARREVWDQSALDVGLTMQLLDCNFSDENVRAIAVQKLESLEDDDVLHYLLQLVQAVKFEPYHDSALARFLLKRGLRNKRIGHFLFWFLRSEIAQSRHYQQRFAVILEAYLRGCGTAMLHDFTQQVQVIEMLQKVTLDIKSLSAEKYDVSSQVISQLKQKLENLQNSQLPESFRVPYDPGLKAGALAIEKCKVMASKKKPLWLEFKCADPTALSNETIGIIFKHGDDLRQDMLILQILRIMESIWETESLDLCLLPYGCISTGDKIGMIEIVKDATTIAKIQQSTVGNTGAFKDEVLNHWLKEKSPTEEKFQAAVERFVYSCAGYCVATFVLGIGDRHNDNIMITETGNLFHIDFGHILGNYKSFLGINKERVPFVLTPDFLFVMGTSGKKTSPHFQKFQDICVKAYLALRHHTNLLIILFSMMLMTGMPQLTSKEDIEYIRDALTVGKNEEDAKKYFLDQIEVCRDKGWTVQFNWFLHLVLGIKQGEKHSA

For orientation: IC50 means the concentration that gives 50% inhibition. Lower therefore signals inhibition by little substance. In the case of `O=C(CCl)c1ccc(N2CCOCC2)cc1O`, the IC50 stood at 70 µM at PIK3CG, 4.8 µM against PIK3CD and 30 µM against PIK3CA.

For `Cc1cc(Nc2cccc(C)c2C)c2nc(N3CCOCC3)cc(=O)n2c1`, the IC50 at PIK3CB was 3.5 µM; at PIK3CG, 100 µM; on PIK3CD, 3.3 µM; on PIK3CA, 6.2 µM.

As for `Cc1cccc(CNc2cc(C)cn3c(=O)cc(N4CCOCC4)nc23)c1`, the IC50 against PIK3CB is 0.99 µM; on PIK3CG, 25 µM; at PIK3CD, 0.39 µM; against PIK3CA it was 1.8 µM.

`O=c1cc(N2CCOCC2)oc2ccccc12`: the IC50 against PIK3CB is 7.5 µM; against PIK3CG, 100 µM; on PIK3CD it was 13 µM; on PIK3CA it was 45 µM.

In turn, `Cc1cc(NCc2ccccc2C)c2nc(N3CCOCC3)cc(=O)n2c1` gave an IC50 against PIK3CB of 0.11 µM.

Consider `Cc1ccccc1Oc1cccc2c(=O)cc(N3CCOCC3)[nH]c12`, for which the IC50 on PIK3CB amounted to 0.13 µM; against PIK3CG, 100 µM; on PIK3CD, 0.63 µM; at PIK3CA it was 61 µM.

`O=Cc1ccc(N2CCOCC2)cc1O`: the IC50 at PIK3CB came to 2.8 µM.

`O=C(c1ccccc1)c1ccc(N2CCOCC2)cc1O` yielded an IC50 against PIK3CB of 3.7 µM. The IC50 values of the last two compounds are within 1.5-fold of each other.

Take `COc1ccccc1Nc1cc(C)cn2c(=O)cc(N3CCOCC3)nc12`: the IC50 is 20 µM on PIK3CB, over 100 µM against PIK3CG, 10 µM against PIK3CD and 50 µM against PIK3CA.

Take `Cc1cc(Nc2ccccc2C)c2nc(N3CCOCC3)cc(=O)n2c1`: the IC50 is 3.3 µM at PIK3CB, over 100 µM at PIK3CG, 3.8 µM against PIK3CD and 9 µM on PIK3CA.

A word on the IC80: it is the point of the concentration-response curve where the effect stands at 80%. A lower IC80 goes with greater potency. As for `CC(=O)c1ccc(N2CCOCC2)cc1O`, on PIK3CB, the IC80 was found to be 0.99 µM. Moreover, the half-maximal inhibitory concentration (IC50) at PIK3CG turned out to be 10 µM; against PIK3CD, 3.8 µM; at PIK3CA, 16 µM.

At PIK3CD, `O=c1cc(N2CCOCC2)oc2c(-c3ccccc3)cccc12` registered an IC50 of 6 µM.

As to `Cc1cc(NCc2ccccc2)c2nc(N3CCOCC3)cc(=O)n2c1`, the IC50 against PIK3CB came to 0.16 µM; on PIK3CG, 10 µM; against PIK3CD, 0.15 µM; against PIK3CA, 8.1 µM.

For the compound `Nc1cc(N2CCOCC2)ccc1[N+](=O)[O-]`, the IC50 was 23 µM on PIK3CB, 100 µM against PIK3CG, 24 µM on PIK3CD and 100 µM at PIK3CA.

Take `Cc1cc(-c2cccc(N)c2)c2nc(N3CCOCC3)cc(=O)n2c1`: the concentration for half-maximal inhibition (IC50) at PIK3CB turned out to be 18 µM; at PIK3CG, 38 µM; against PIK3CD it was 6.9 µM; at PIK3CA it was 14 µM.

Consider `Cc1cc(Nc2ccc(C)c(C)c2)c2nc(N3CCOCC3)cc(=O)n2c1`, for which the IC50 against PIK3CB is 14 µM; at PIK3CG, over 100 µM; on PIK3CD, 5 µM; against PIK3CA, 10 µM.

With `Cc1cc(Br)c2nc(N3CCOCC3)cc(=O)n2c1`, the IC50 at PIK3CB was 9.9 µM; at PIK3CG, over 100 µM; against PIK3CD, 8.5 µM; against PIK3CA, 58 µM.
